Experimental data as given in article PMC11149339, “Necessity for higher teicoplanin doses in older adults: a multicenter prospective observational study in China” (BMC Geriatrics, 2024).

Experiment: Therapeutic drug monitoring of teicoplanin concentration after drug withdrawal, LC-MS/MS
Format: in vivo, human
Settings: for TDM Withdraw 8-14d (teicoplanin concentration): 8–14 days after last dose (withdrawal); for TDM Withdraw 8-14d (teicoplanin concentration) / TDM Withdraw 3d (teicoplanin concentration) / TDM Withdraw ≤ 7d (teicoplanin concentration) / TDM Withdraw ≥ 15d (teicoplanin concentration): median [IQR], LC-MS/MS; for TDM Withdraw 3d (teicoplanin concentration): 3 days after last dose (withdrawal); for TDM Withdraw ≤ 7d (teicoplanin concentration): ≤ 7 days after last dose (withdrawal); for TDM Withdraw ≥ 15d (teicoplanin concentration): ≥ 15 days after last dose (withdrawal); for patients with TDM 10–20 mg/L Withdraw ≥ 15d, N (%) / patients with TDM < 10 mg/L Withdraw ≥ 15d, N (%) / patients with TDM > 20 mg/L Withdraw ≥ 15d, N (%): ≥ 15 days after last dose
Method: Teicoplanin (Targocid, Sanofi, Dublin, Ireland) was administered intravenously for 30 min. The prescribed dose regimens were at the discretion of treating physicians, and the recommended regimens were not always followed.
Blood samples (5 mL) were collected from the elbow into ethylenediaminetetraacetic acid-containing Vacutainers® (Becton Dickinson, Milan, Italy) in the morning before teicoplanin administration and after drug withdrawal. Samples were promptly refrigerated and centrifuged at 2500 × g for 10 min before 2 mL of supernatant was preserved at -20 °C for subsequent analysis. Teicoplanin concentrations were determined using liquid chromatography-tandem mass spectrometry. The linear range of the method was 1.0–100.0 mg/L, and the lower limit of quantification was 1.0 mg/L. The relative standard deviation of intra- and inter-batch precision was ≤ 10%.
Teicoplanin concentrations were dynamically monitored. Concentrations at 3, ≤ 7, 8–14, and ≥ 15 days after the first dose and within 2 h of the next scheduled dose were recorded as TDM3d, TDM≤7d, TDM8-14d, and TDM≥15d, respectively. Concentrations at 3, ≤ 7, 8–14, and ≥ 15 days after the last teicoplanin dose (withdrawal) were recorded as TDMw3d, TDMw≤7d, TDMw8-14d, and TDMw≥15d. respectively (Fig. 1a). The Cmin target was ≥ 10 mg/L [6, 7, 23]; a concentration < 10 mg/L was considered suboptimal. Average TDM (TDMa) was defined as the mean Cmin after 3 days of treatment.

[1] = LR-A + MR-A (200 mg once daily, then 200 mg once daily)
[2] = LR-B + MR-A (400 mg once daily, then 200 mg once daily)
[3] = LR-C + MR-B (400 mg at 12-h intervals, then 400 mg once daily)
[4] = 8–14 days after last dose, LR-A + MR-A
[5] = 8–14 days after last dose, LR-B + MR-A
[6] = 8–14 days after last dose, LR-C + MR-B
[7] = LR-B + MR-B (400 mg once daily, then 400 mg once daily)
[8] = LR-C + MR-C (400 mg at 12-h intervals, then 400 mg twice daily)
[9] = 3 days after last dose, LR-A + MR-A
[10] = 3 days after last dose, LR-B + MR-A
[11] = 3 days after last dose, LR-B + MR-B
[12] = 3 days after last dose, LR-C + MR-B
[13] = 3 days after last dose, LR-C + MR-C
[14] = ≤ 7 days after last dose, LR-A + MR-A
[15] = ≤ 7 days after last dose, LR-B + MR-A
[16] = ≤ 7 days after last dose, LR-B + MR-B
[17] = ≤ 7 days after last dose, LR-C + MR-B
[18] = ≤ 7 days after last dose, LR-C + MR-C

Teicoplanin
TDM Withdraw 8-14d (teicoplanin concentration) [1]: 5.5[3.8,7.6] mg/L | TDM Withdraw 8-14d (teicoplanin concentration) [2]: 5.0[3.4,6.6] mg/L | TDM Withdraw 8-14d (teicoplanin concentration) [3]: 0[0,2.5] mg/L | TDM Withdraw 8-14d (teicoplanin concentration) (all patients (N = 204)): 5.3[3.3,7.0] mg/L | patients with TDM 10–20 mg/L Withdraw 8-14d, N (%) [4]: 8(16.0) | patients with TDM < 10 mg/L Withdraw 8-14d, N (%) [4]: 42(84.0) | patients with TDM > 20 mg/L Withdraw 8-14d, N (%) [4]: 0 | patients with TDM 10–20 mg/L Withdraw 8-14d, N (%) [5]: 7(14.6) | patients with TDM < 10 mg/L Withdraw 8-14d, N (%) [5]: 40(83.3) | patients with TDM > 20 mg/L Withdraw 8-14d, N (%) [5]: 1(2.1) | patients with TDM 10–20 mg/L Withdraw 8-14d, N (%) [6]: 0 | patients with TDM < 10 mg/L Withdraw 8-14d, N (%) [6]: 4(100) | patients with TDM > 20 mg/L Withdraw 8-14d, N (%) [6]: 0 | patients having concentrations of 10–20 mg/L, TDMw8-14d (8–14 days after last dose, all patients, 15 patients): 14.6% | patients having concentrations exceeding 20 mg/L, TDMw8-14d (8–14 days after last dose, all patients, one patient): 1.0% | patients in whom the target concentration (≥ 10 mg/L) was achieved after withdrawal (8–14 days after withdrawal, all patients): 15.6% | TDM Withdraw 3d (teicoplanin concentration) [1]: 11.1[8.2,16.5] mg/L | TDM Withdraw 3d (teicoplanin concentration) [2]: 9.6[7.2,13.8] mg/L | TDM Withdraw 3d (teicoplanin concentration) [7]: 16.3[9.4,20.2] mg/L | TDM Withdraw 3d (teicoplanin concentration) [3]: 8.4[5.3,11.7] mg/L | TDM Withdraw 3d (teicoplanin concentration) [8]: 12.4[7.9,15.6] mg/L | TDM Withdraw 3d (teicoplanin concentration) (all patients (N = 204)): 10.6[7.9,15.6] mg/L | patients with TDM 10–20 mg/L Withdraw 3d, N (%) [9]: 7(53.8) | patients with TDM < 10 mg/L Withdraw 3d, N (%) [9]: 5(38.5) | patients with TDM > 20 mg/L Withdraw 3d, N (%) [9]: 1(7.7) | patients with TDM 10–20 mg/L Withdraw 3d, N (%) [10]: 6(42.9) | patients with TDM < 10 mg/L Withdraw 3d, N (%) [10]: 7(50.0) | patients with TDM > 20 mg/L Withdraw 3d, N (%) [10]: 1(7.1) | patients with TDM 10–20 mg/L Withdraw 3d, N (%) [11]: 3(60) | patients with TDM < 10 mg/L Withdraw 3d, N (%) [11]: 1(20) | patients with TDM > 20 mg/L Withdraw 3d, N (%) [11]: 1(20) | patients with TDM 10–20 mg/L Withdraw 3d, N (%) [12]: 2(25.0) | patients with TDM < 10 mg/L Withdraw 3d, N (%) [12]: 6(75.0) | patients with TDM > 20 mg/L Withdraw 3d, N (%) [12]: 0 | patients with TDM 10–20 mg/L Withdraw 3d, N (%) [13]: 4(44.4) | patients with TDM < 10 mg/L Withdraw 3d, N (%) [13]: 4(44.4) | patients with TDM > 20 mg/L Withdraw 3d, N (%) [13]: 1(11.2) | patients having concentrations of 10–20 mg/L, TDMw3d (3 days after last dose, all patients, 22 patients): 44.9% | patients having concentrations exceeding 20 mg/L, TDMw3d (3 days after last dose, all patients, four patients): 8.2% | patients in whom the target concentration (≥ 10 mg/L) was achieved after withdrawal (3 days after withdrawal, all patients): 53.1% | TDM Withdraw ≤ 7d (teicoplanin concentration) [1]: 7.9[5.8,11.4] mg/L | TDM Withdraw ≤ 7d (teicoplanin concentration) [2]: 7.2[5.6,12.0] mg/L | TDM Withdraw ≤ 7d (teicoplanin concentration) [7]: 12.3[7.7,17.0] mg/L | TDM Withdraw ≤ 7d (teicoplanin concentration) [3]: 6.3[3.4,9.4] mg/L | TDM Withdraw ≤ 7d (teicoplanin concentration) [8]: 7.5[3.2,15.6] mg/L | TDM Withdraw ≤ 7d (teicoplanin concentration) (all patients (N = 204)): 7.4[5.7,12.0] mg/L | patients with TDM 10–20 mg/L Withdraw ≤ 7d, N (%) [14]: 13(28.3) | patients with TDM < 10 mg/L Withdraw ≤ 7d, N (%) [14]: 30(65.2) | patients with TDM > 20 mg/L Withdraw ≤ 7d, N (%) [14]: 3(6.5) | patients with TDM 10–20 mg/L Withdraw ≤ 7d, N (%) [15]: 14(29.8) | patients with TDM < 10 mg/L Withdraw ≤ 7d, N (%) [15]: 31(66.0) | patients with TDM > 20 mg/L Withdraw ≤ 7d, N (%) [15]: 2(4.2) | patients with TDM 10–20 mg/L Withdraw ≤ 7d, N (%) [16]: 2(40) | patients with TDM < 10 mg/L Withdraw ≤ 7d, N (%) [16]: 2(40) | patients with TDM > 20 mg/L Withdraw ≤ 7d, N (%) [16]: 1(20) | patients with TDM 10–20 mg/L Withdraw ≤ 7d, N (%) [17]: 2(18.2) | patients with TDM < 10 mg/L Withdraw ≤ 7d, N (%) [17]: 9(81.8) | patients with TDM > 20 mg/L Withdraw ≤ 7d, N (%) [17]: 0 | patients with TDM 10–20 mg/L Withdraw ≤ 7d, N (%) [18]: 2(22.2) | patients with TDM < 10 mg/L Withdraw ≤ 7d, N (%) [18]: 6(66.7) | patients with TDM > 20 mg/L Withdraw ≤ 7d, N (%) [18]: 1(11.1) | patients having concentrations of 10–20 mg/L, TDMw≤7d (≤ 7 days after last dose, all patients, 33 patients): 28.0% | patients having concentrations exceeding 20 mg/L, TDMw≤7d (≤ 7 days after last dose, all patients, seven patients): 5.9% | patients in whom the target concentration (≥ 10 mg/L) was achieved after withdrawal (≤ 7 days after withdrawal, all patients): 33.9% | TDM Withdraw ≥ 15d (teicoplanin concentration) [1]: 4.54[0,7.3] mg/L | TDM Withdraw ≥ 15d (teicoplanin concentration) [2]: 4.1[0,7.0] mg/L | TDM Withdraw ≥ 15d (teicoplanin concentration) [3]: 0[0,0] mg/L | TDM Withdraw ≥ 15d (teicoplanin concentration) [8]: 2.1[0,2.8] mg/L | TDM Withdraw ≥ 15d (teicoplanin concentration) (all patients (N = 204)): 3.5[0,6.4] mg/L | patients with TDM 10–20 mg/L Withdraw ≥ 15d, N (%) (LR-A + MR-A): 1(2.4) | patients with TDM < 10 mg/L Withdraw ≥ 15d, N (%) (LR-A + MR-A): 41(97.6) | patients with TDM > 20 mg/L Withdraw ≥ 15d, N (%) (LR-A + MR-A): 0 | patients with TDM 10–20 mg/L Withdraw ≥ 15d, N (%) (LR-B + MR-A): 4(10.5) | patients with TDM < 10 mg/L Withdraw ≥ 15d, N (%) (LR-B + MR-A): 34(89.5) | patients with TDM > 20 mg/L Withdraw ≥ 15d, N (%) (LR-B + MR-A): 0 | patients with TDM 10–20 mg/L Withdraw ≥ 15d, N (%) (LR-C + MR-B): 0 | patients with TDM < 10 mg/L Withdraw ≥ 15d, N (%) (LR-C + MR-B): 5(100) | patients with TDM > 20 mg/L Withdraw ≥ 15d, N (%) (LR-C + MR-B): 0 | patients with TDM 10–20 mg/L Withdraw ≥ 15d, N (%) (LR-C + MR-C): 0 | patients with TDM < 10 mg/L Withdraw ≥ 15d, N (%) (LR-C + MR-C): 5(100) | patients with TDM > 20 mg/L Withdraw ≥ 15d, N (%) (LR-C + MR-C): 0 | patients in whom the target concentration (≥ 10 mg/L) was achieved after withdrawal (≥ 15 days after withdrawal, all patients): 5.5% | patients in whom teicoplanin remained detectable (≥ 15 days after withdrawal, lower limit of quantification 1.0 mg/L): two-thirds
